Structures are written as SMILES. Converted amounts (≈) assume the structure as drawn. The source made the active and inactive calls. The calls are words filed in the database; no cut-off is given here.

Experiment [1] has as its system Staphylococcus aureus. The experiment is described as follows: Antibacterial activity against methicillin-resistant Staphylococcus aureus ATCC 33591 by CLSI broth microdilution method. The experiment is classed as functional.
Experiment [2] concerns Enterococcus faecalis. Kind of experiment: Antibacterial activity against vancomycin-resistant Enterococcus faecalis ATCC 51575 by CLSI broth microdilution method. It is filed as functional. On the technique in general: Broth dilution looks for growth in wells or tubes with falling amounts of substance.
In experiment [3] the test system is Staphylococcus aureus. The experiment is described as follows: Antibacterial activity against methicillin-sensitive Staphylococcus aureus 8325-4 by CLSI broth microdilution method. The experiment is classed as functional.
Experiment [4] deals with Enterococcus faecalis. The experiment is described as follows: Antibacterial activity against vancomycin-sensitive Enterococcus faecalis ATCC 19433 by CLSI broth microdilution method. It is filed as functional.
Experiment [5] addresses T1, Cell division protein FtsZ (Staphylococcus aureus) (UniProt P0A031).
T1 sequence (whole entry): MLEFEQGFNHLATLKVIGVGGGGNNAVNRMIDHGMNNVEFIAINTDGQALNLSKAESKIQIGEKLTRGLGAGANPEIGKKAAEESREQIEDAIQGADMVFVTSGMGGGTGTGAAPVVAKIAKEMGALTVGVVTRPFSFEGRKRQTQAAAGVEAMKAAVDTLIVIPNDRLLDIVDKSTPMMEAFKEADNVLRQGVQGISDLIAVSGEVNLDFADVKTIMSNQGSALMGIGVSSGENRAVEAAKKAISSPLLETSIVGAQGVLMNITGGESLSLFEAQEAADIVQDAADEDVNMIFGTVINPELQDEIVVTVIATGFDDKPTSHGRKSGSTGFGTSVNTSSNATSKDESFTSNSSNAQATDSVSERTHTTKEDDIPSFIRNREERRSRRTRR
The experiment is described as follows: Induction of Staphylococcus aureus FtsZ self-polymerization assessed as increase in light scattering at 10 ug/mL by 90 deg angle light scattering assay. Particulars: TDE = time-dependent effect.

Experiment [6] addresses T1, Cell division protein FtsZ (Staphylococcus aureus). The experiment is described as follows: Induction of Staphylococcus aureus FtsZ self-polymerization assessed as increase in light scattering at 20 ug/mL by 90 deg angle light scattering assay. The note with it: TDE = time-dependent effect.
Experiment [7] shares this target. Kind of experiment: Induction of Staphylococcus aureus FtsZ self-polymerization assessed as increase in light scattering at 20 ug/mL measured every 5 secs by 90 deg angle light scattering assay.
Experiment [8] shares this target. Kind of experiment: Inhibition of Staphylococcus aureus FtsZ self-polymerization assessed as decrease in light scattering at 20 ug/mL by 90 deg angle light scattering assay. The note with it: TDE = time-dependent effect.

Take `COc1cc2cc3c4cc(-c5ccc(-c6ccccc6)cc5)c(OC)c(OC)c4cc[n+]3cc2cc1OC.[Cl-]`: the MIC against Staphylococcus aureus [1] came out at 2 µg/mL; with Enterococcus faecalis [2], 4 µg/mL; against Staphylococcus aureus [3], 2 µg/mL; with Enterococcus faecalis [4], 8 µg/mL.
As for `CN[C@H](CC(C)C)C(=O)N[C@H]1C(=O)N[C@@H](CC(N)=O)C(=O)N[C@H]2C(=O)N[C@H]3C(=O)N[C@H](C(=O)N[C@H](C(=O)O)c4cc(O)cc(O)c4-c4cc3ccc4O)[C@H](O)c3ccc(c(Cl)c3)Oc3cc2cc(c3O[C@@H]2O[C@H](CO)[C@@H](O)[C@H](O)[C@H]2O[C@H]2C[C@](C)(N)[C@H](O)[C@H](C)O2)Oc2ccc(cc2Cl)[C@H]1O` [VANCOMYCIN], the MIC against Enterococcus faecalis [2] was > 64 µg/mL; in the experiment on Enterococcus faecalis [4], 1 µg/mL (≈ 0.69 µM).
`CC[C@H]1OC(=O)[C@H](C)[C@@H](O[C@H]2C[C@@](C)(OC)[C@@H](O)[C@H](C)O2)[C@H](C)[C@@H](O[C@@H]2O[C@H](C)C[C@H](N(C)C)[C@H]2O)[C@](C)(O)C[C@@H](C)C(=O)[C@H](C)[C@@H](O)[C@]1(C)O` [ERYTHROMYCIN]: the MIC is > 64 µg/mL in the experiment on Staphylococcus aureus [1], > 64 µg/mL in the experiment with Enterococcus faecalis [2], 0.13 µg/mL (≈ 0.177 µM) against Staphylococcus aureus [3] and 1 µg/mL (≈ 1.36 µM) against Enterococcus faecalis [4].
`CC(C)C(=O)OS(=O)(=O)[O-].COc1cc2cc3c4cc(-c5ccc(-c6ccccc6)cc5)c(OC)c(OC)c4cc[n+]3c(C(C)C)c2cc1OC`: the Activity entry in experiment [5] and in experiment [6] was “tde” each time. Also, the MIC came out at 0.5 µg/mL with Staphylococcus aureus [1], 2 µg/mL against Enterococcus faecalis [2], 0.5 µg/mL with Staphylococcus aureus [3] and 2 µg/mL in the experiment on Enterococcus faecalis [4].
`CC(=O)OS(=O)(=O)[O-].COc1cc2cc3c4cc(-c5cccc6ccccc56)c(OC)c(OC)c4cc[n+]3c(C)c2cc1OC`: the MIC stood at 2 µg/mL against Staphylococcus aureus [1], 8 µg/mL against Enterococcus faecalis [2], 1 µg/mL with Staphylococcus aureus [3] and 4 µg/mL against Enterococcus faecalis [4].
For the compound `CCC[C@@H]1C[C@@H](C(=O)N[C@@H]([C@H]2O[C@H](SC)[C@H](O)[C@@H](O)[C@H]2O)[C@H](C)Cl)N(C)C1` [CLINDAMYCIN], the MIC was > 64 µg/mL against Staphylococcus aureus [1], > 64 µg/mL with Enterococcus faecalis [2], 0.03 µg/mL (≈ 0.0706 µM) against Staphylococcus aureus [3] and 2 µg/mL (≈ 4.71 µM) against Enterococcus faecalis [4].
As to `CC(=O)OS(=O)(=O)[O-].COc1cc2cc3c4cc(-c5ccccc5)c(OC)c(OC)c4cc[n+]3c(C)c2cc1OC`, the MIC with Staphylococcus aureus [1] was 8 µg/mL; with Enterococcus faecalis [2], 16 µg/mL; with Staphylococcus aureus [3], 2 µg/mL; against Enterococcus faecalis [4], 8 µg/mL.
For `COc1ccc2cc3[n+](cc2c1OC)CCc1cc2c(cc1-3)OCO2` [BERBERINE], the MIC with Staphylococcus aureus [1], against Enterococcus faecalis [2], in the experiment with Staphylococcus aureus [3] and with Enterococcus faecalis [4] was > 64 µg/mL each time.
Take `COc1cc2c[n+]3ccc4c(OC)c(OC)ccc4c3cc2c(-c2ccc(-c3ccccc3)cc2)c1OC.[Cl-]`: the MIC in the experiment with Staphylococcus aureus [1] was determined as 8 µg/mL; against Enterococcus faecalis [2], 16 µg/mL; against Staphylococcus aureus [3], 2 µg/mL; with Enterococcus faecalis [4], 8 µg/mL.
Take `COc1cc2cc3c4cc(-c5cccc6ccccc56)c(OC)c(OC)c4cc[n+]3cc2cc1OC.[Cl-]`: the MIC was 2 µg/mL against Staphylococcus aureus [1], 8 µg/mL in the experiment on Enterococcus faecalis [2], 4 µg/mL with Staphylococcus aureus [3] and 8 µg/mL with Enterococcus faecalis [4].
For `COc1cc2cc[n+]3cc4cc(OC)c(OC)c(-c5ccc(-c6ccccc6)cc5)c4cc3c2cc1OC.[Cl-]`, the MIC against Staphylococcus aureus [1] amounted to 4 µg/mL; in the experiment with Enterococcus faecalis [2], 32 µg/mL; with Staphylococcus aureus [3], 2 µg/mL; against Enterococcus faecalis [4] it was 8 µg/mL.
On to `COc1cc2cc3c4cc(-c5ccc(C(C)(C)C)cc5)c(OC)c(OC)c4cc[n+]3cc2cc1OC.[Cl-]`, for which the MIC against Staphylococcus aureus [1] was found to be 4 µg/mL; against Enterococcus faecalis [2], 8 µg/mL; against Staphylococcus aureus [3], 4 µg/mL; with Enterococcus faecalis [4], 4 µg/mL.
Turning to `COc1cc2cc3c4cc(-c5ccc(C)cc5)c(OC)cc4cc[n+]3cc2cc1OC.[Cl-]`, the MIC in the experiment on Staphylococcus aureus [1] was 8 µg/mL; against Enterococcus faecalis [2], > 64 µg/mL; in the experiment with Staphylococcus aureus [3], 2 µg/mL; with Enterococcus faecalis [4] it was 16 µg/mL.
`COc1cc2cc3c4cc(-c5ccccc5)c(OC)cc4cc[n+]3cc2cc1OC.[Cl-]`: the MIC in the experiment with Staphylococcus aureus [1] amounted to 32 µg/mL; with Enterococcus faecalis [2], 64 µg/mL; against Staphylococcus aureus [3], 8 µg/mL; in the experiment on Enterococcus faecalis [4] it was 32 µg/mL.
In the case of `CC(=O)OS(=O)(=O)[O-].COc1cc2cc3c4cc(-c5ccc(C(C)(C)C)cc5)c(OC)c(OC)c4cc[n+]3c(C)c2cc1OC`, the MIC against Staphylococcus aureus [1] is 2 µg/mL; against Enterococcus faecalis [2], 4 µg/mL; in the experiment on Staphylococcus aureus [3], 1 µg/mL; in the experiment with Enterococcus faecalis [4], 4 µg/mL.
Take `CC(=O)OS(=O)(=O)[O-].COc1cc2c(C)[n+]3ccc4c(OC)c(OC)ccc4c3cc2c(-c2ccc(-c3ccccc3)cc2)c1OC`: the MIC worked out at 4 µg/mL against Staphylococcus aureus [1], 16 µg/mL with Enterococcus faecalis [2], 1 µg/mL in the experiment on Staphylococcus aureus [3] and 16 µg/mL against Enterococcus faecalis [4].
On to `CC(=O)OS(=O)(=O)[O-].COc1cc2cc3c4cc(-c5ccc(-c6ccccc6)cc5)c(OC)c(OC)c4cc[n+]3c(C)c2cc1OC`, for which the MIC came out at 2 µg/mL in the experiment with Staphylococcus aureus [1], 8 µg/mL against Enterococcus faecalis [2], 1 µg/mL against Staphylococcus aureus [3] and 4 µg/mL against Enterococcus faecalis [4].
Turning to `Cc1onc(-c2ccccc2)c1C(=O)N[C@@H]1C(=O)N2[C@@H]1SC(C)(C)[C@@H]2C(=O)O` [OXACILLIN], the MIC is > 64 µg/mL against Staphylococcus aureus [1], > 64 µg/mL in the experiment on Enterococcus faecalis [2], 0.06 µg/mL (≈ 0.149 µM) against Staphylococcus aureus [3] and 8 µg/mL (≈ 19.9 µM) against Enterococcus faecalis [4]. Moreover, the outcome in experiment [7] was inactive.
As for `CC(=O)OS(=O)(=O)[O-].COc1cc2cc3c4cc(-c5ccccc5)c(OC)cc4cc[n+]3c(C)c2cc1OC`, the MIC is > 64 µg/mL in the experiment on Staphylococcus aureus [1], > 64 µg/mL in the experiment with Enterococcus faecalis [2], 8 µg/mL with Staphylococcus aureus [3] and > 64 µg/mL in the experiment with Enterococcus faecalis [4].
As for `CN(C)[C@@H]1C(O)=C(C(N)=O)C(=O)[C@@]2(O)C(O)=C3C(=O)c4c(O)cccc4[C@@](C)(O)[C@H]3C[C@@H]12` [TETRACYCLINE], the MIC with Staphylococcus aureus [1] was 64 µg/mL (≈ 144 µM); against Enterococcus faecalis [2] it was > 64 µg/mL; in the experiment with Staphylococcus aureus [3], 0.06 µg/mL (≈ 0.135 µM); against Enterococcus faecalis [4], 0.5 µg/mL (≈ 1.13 µM).
For `CC(=O)OS(=O)(=O)[O-].COc1cc2cc3c4cc(-c5ccc(C)cc5)c(OC)cc4cc[n+]3c(C)c2cc1OC`, in that order: 8 µg/mL, > 64 µg/mL, 4 µg/mL and 8 µg/mL.
Consider `CC(=O)OS(=O)(=O)[O-].COc1cc2cc[n+]3c(C)c4cc(OC)c(OC)c(-c5ccc(-c6ccccc6)cc5)c4cc3c2cc1OC`, for which the MIC worked out at 4 µg/mL against Staphylococcus aureus [1], 32 µg/mL in the experiment with Enterococcus faecalis [2], 1 µg/mL against Staphylococcus aureus [3] and 4 µg/mL against Enterococcus faecalis [4]. Also, in experiment [6], the Activity result was “tde”. For the same compound, the inhibition result in experiment [8] was “tde”.
Take `COc1cc2cc3c4cc(-c5ccccc5)c(OC)c(OC)c4cc[n+]3cc2cc1OC.[Cl-]`: the MIC in the experiment with Staphylococcus aureus [1] was 8 µg/mL; against Enterococcus faecalis [2], 32 µg/mL; against Staphylococcus aureus [3], 4 µg/mL; against Enterococcus faecalis [4], 16 µg/mL.

By MIC is commonly meant the least concentration at which growth counts as inhibited. Low readings indicate a more susceptible organism, high ones a less susceptible organism.

Values taken from ChEMBL document CHEMBL2157956, “Antibacterial activity of substituted dibenzo[a,g]quinolizin-7-ium derivatives” (2012).
